Key:
[1] = Body temperature in wild-type and 5-HT1A autoreceptor KO mice; assay type: in vivo, mouse; conditions: Zn 5 mg/kg (Zn chloride), 30 and 60 min
Text: A conditional knockout approach was used to eliminate the 5-HT1AR in the raphe nuclei in adult mice. To create the conditional 5-HT1AR knockout mice, a TPH2-Cre-ER^T2 mouse line was crossed with a flx-5-HT1A-YFP mouse line. The TPH2-Cre-ER^T2 confers specificity such that only serotonin neurons, which express tryptophan hydroxylase 2 (TPH2), can express Cre recombinase to knockout the 5-HT1AR gene and allow for […] expression. Once the mice reached adulthood (approximately 5–6 postnatal weeks), tamoxifen (180 mg/kg) was injected i.p. every day for five consecutive days (the tamoxifen binds to the ER^T2 domain and enables Cre to enter the nucleus where it can excise the 5-HT1AR gene, allowing for YFP expression as a marker of recombination). The mice were then left undisturbed for at least 14 days to allow for recombination and the turnover of endogenous 5-HT1ARs.
A separate experiment was performed to measure the effect of Zn on rectal body temperature in wild-type and 5-HT1A autoreceptor KO mice; however, in this experiment, only the higher dose of Zn (5 mg Zn/kg; Zn chloride, Sigma) was used.

[2] = molecular target: T1, human 5-HT1AR stably expressed in HEK293 cells (Homo sapiens, UniProt P08908); assay: Competition and competition-like (Zn titration) binding against 2.5 nM [3H]-8-OH-DPAT; conditions: 2.5 nM radioligand
T1 construct: The full-length human 5HTR1A complementary DNA (cDNA); membranes prepared from the cells
T1 sequence (P08908 1-422): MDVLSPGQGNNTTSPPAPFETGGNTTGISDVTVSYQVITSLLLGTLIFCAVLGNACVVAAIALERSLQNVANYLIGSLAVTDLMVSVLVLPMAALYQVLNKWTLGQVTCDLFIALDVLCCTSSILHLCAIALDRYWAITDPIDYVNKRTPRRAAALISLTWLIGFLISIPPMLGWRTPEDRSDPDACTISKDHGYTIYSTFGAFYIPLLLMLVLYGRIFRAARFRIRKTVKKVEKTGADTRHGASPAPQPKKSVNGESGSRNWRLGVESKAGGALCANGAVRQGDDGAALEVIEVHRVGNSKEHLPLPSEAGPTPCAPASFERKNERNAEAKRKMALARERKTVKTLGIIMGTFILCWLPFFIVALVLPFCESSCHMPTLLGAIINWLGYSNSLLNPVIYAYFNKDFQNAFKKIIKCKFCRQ
Experimental: (§1) The full-length human 5HTR1A complementary DNA (cDNA), which was cloned into the mammalian expression vector pcDNA3.1(+), was obtained from the Missouri S&T cDNA Resource Center (www.cdna.org). The receptor cDNA was stably transfected into human embryonic kidney cells (HEK293, ATCC) with the use of Lipofectamine 2000 (Invitrogen).
(§2) Cell pellets were thawed and homogenized in 20 volumes of 50 mM Tris–HCl buffer (pH 7.7) containing 0.1 mM EDTA and 10 mM MgCl2, using an Ultra Turrax tissue homogenizer. The pellets were then centrifuged twice at 35,000g for 20 min at 4 °C, with incubation for 15 min at 37 °C in between centrifugations. Membranes were aliquoted in tubes. Membrane protein concentrations were determined using the Pierce™ Coomassie (Bradford) Protein Assay Kit, with bovine serum albumin (BSA) as a standard.
The incubation buffer consisted of 50 mM Tris–HCl (pH 7.7), 10 mM MgCl2, 10 mM pargyline and 0.1 % ascorbic acid. Radioligand binding assays were performed by incubating 30 μg of protein of the membrane suspension in 96-well microtitre plates for 60 min at room temperature with shaking, in a total volume of 200 μl. The binding reactions were stopped by filtration through GF/C Unifilter plates using a harvester (PerkinElmer). […] Radioactivity was measured using a MicroBeta TriLux counter (PerkinElmer).

[3] = molecular target: T1, human 5-HT1AR stably expressed in HEK293 cells; assay: Association and dissociation kinetic assays of [3H]-8-OH-DPAT; assay type: binding
Experimental: Non-specific binding was defined by the addition of 10 μM serotonin. The amount of radioligand bound to the receptor was measured at different time intervals during a total incubation of 60 min in the absence or presence of 10 and 500 μM ZnCl2. For the dissociation assay, after incubating the membranes with radioligand for 60 min to achieve equilibrium, serotonin (10 μM), either alone or together with 10 or 500 μM of ZnCl2, was added, and the specifically bound radioligand was measured after incubations of different durations (from 0 to 60 min), which were terminated by rapid filtration.

[4] = design: method as in PMID 20617034; conditions: cited from earlier work
[5] = molecular target: T1, human 5-HT1AR stably expressed in HEK293 cells; assay: Saturation binding of [3H]-8-OH-DPAT in the absence and presence of Zn; conditions: Zn vs [3H]-8-OH-DPAT, nonlinear regression of saturation data, equation 1
Experimental: as §1, §2
The incubation buffer consisted of 50 mM Tris–HCl (pH 7.7), 10 mM MgCl2, 10 mM pargyline and 0.1 % ascorbic acid. Radioligand binding assays were performed by incubating 30 μg of protein of the membrane suspension in 96-well microtitre plates for 60 min at room temperature with shaking, in a total volume of 200 μl. The binding reactions were stopped by filtration through GF/C Unifilter plates using a harvester (PerkinElmer). The plate filters were dried, and 20 μl of Ultima Gold MV (PerkinElmer) was added. Radioactivity was measured using a MicroBeta TriLux counter (PerkinElmer).
All experiments were performed in triplicate, and the results were obtained from at least three independent experiments. The data are expressed as the mean±S.D. (standard deviation). The experimental data were analysed using GraphPad Prism 5.1 for Windows (GraphPad Software, San Diego California USA, www.graphpad.com).

[6] = test system: Sprague Dawley rats; assay: Lower lip retraction (LLR) in rats; assay type: in vivo, rat; conditions: for Mean LLR score (A) VEH: max score 3/rat
Experimental: The experiments were performed on male Albino Swiss mice (23-25 g) and Sprague Dawley rats (200-250 g) from Charles River, Germany as well as […]-flx-YFP mice from Jackson Labs, Bangor ME and the Hen lab, respectively. The animals were kept under standard laboratory conditions with respect to lighting (light phase 7:00-19:00) and temperature (19-21 °C). Food and water were freely available. Each experimental group consisted of eight to ten animals. All of the animals were experimentally naive and were used only once in each test. The experiments were performed during the light period (9:00-14:00 h). All of the procedures were conducted according to the guidelines of the National Institutes of Health Animal Care and Use Committee and were approved by the Ethics Committees of the Institute of Pharmacology, Polish Academy of Sciences in Krakow and the Animal Care Committee, University of Ottawa. […] Controls were treated with the appropriate diluent, which was indicated as VEH on the graphs and in the tables. LLR was assessed according to the method described by Berendsen et al., [20]. The rats were individually placed in cages (30×25×25 cm) and were scored three times, 15, 30 and 45 min after the administration of Zn as follows: 0=lower incisors not visible, 0.5=partly visible and 1=completely visible. Zn was administered at doses of 2 and 5 mg Zn/kg (given as Zn hydroaspartate, Farmapol, Poland). The maximum total score was 3/rat. In addition, the effects of Zn and WAY-100635 (0.1 mg/kg; […] Sigma) were tested.

[Zn+2] [Zn, Zinc]
change in body temperature [1]: decreased the body temperature of the wild-type mice
increase of [3H]-8-OH-DPAT specific binding ([2]; 10 μM of Zn, bell-shaped titration curve): ~ 25%
effect on [3H]-8-OH-DPAT specific binding ([2]; Zn at >100 μM): inhibition
effect on association rate of [3H]-8-OH-DPAT ([3]; 10 μM of Zn ions): small increase in the association rate
effect on association rate of [3H]-8-OH-DPAT ([3]; 500 μM Zn): no effect on the kon values
effect on dissociation rate of [3H]-8-OH-DPAT ([3]; high Zn concentration (500 μM)): both phases were significantly reduced
effect on dissociation rate of [3H]-8-OH-DPAT ([3]; low Zn concentration (10 μM)): disappearance of the fast radioligand dissociation rate
extracellular Zn level reported as neurotoxic [4]: over 300 μM
cooperativity factor α [5]: 0.37
Mean LLR score (A) VEH ([6]; Zn 2 mg Zn/kg i.p. alone): 0.0±0.0
Mean LLR score (B) 8-OH-DPAT 1 mg/kg ([6]; Zn 2 mg/kg 45 min before 8-OH-DPAT 1 mg/kg): 1.17±0.98
Mean LLR score (A) VEH ([6]; Zn 5 mg Zn/kg i.p. alone): 0.0±0.0
Mean LLR score (B) 8-OH-DPAT 1 mg/kg ([6]; Zn 5 mg/kg 45 min before 8-OH-DPAT 1 mg/kg): 0.46±0.75
effect on LLR induced by 8-OH-DPAT (in words) ([6]; Zn 2 and 5 mg/kg or WAY-100635 0.1 mg/kg before 8-OH-DPAT 1 mg/kg): blocked the LLR induced by 8-OH-DPAT
induction of LLR (in words) ([6]; given alone: 8-OH-DPAT 1 mg/kg, Zn 2 and 5 mg/kg, WAY-100635 0.1 mg/kg): did not evoke LLR

— PMC5104769, “Concentration-Dependent Dual Mode of Zn Action at Serotonin 5-HT1A Receptors: In Vitro and In Vivo Studies” (Molecular neurobiology, 2015)
